US20230062100A1, “SUBSTITUTED AMINOQUINOLONES AS DGKALPHA INHIBITORS FOR IMMUNE ACTIVATION” (Bayer Aktiengesellschaft, priority 2019, published 2023)

Target: DGKα (Homo sapiens, UniProt P23743)
Experiment: Human DGKα kinase activity inhibition assay (ADP-Glo)
Assay type: biochemical
Conditions: in vitro human DGKα kinase activity inhibition assay
Procedure: Human DGKα inhibitory activity of compounds of the present invention was quantified employing the human DGKα kinase activity assay as described in the following paragraphs. In essence, the enzyme activity was measured by quantification of the adenosine-di-phosphate (ADP) generated as a co-product of the enzyme reaction via the “ADP-Glo™ Kinase Assay” kit from the company Promega. This detection system works as follows: In a first step the ATP not consumed in the kinase reaction is quantitatively converted to cAMP employing an adenylate cyclase (“ADP-Glo-reagent”), then the adenylate cyclase is stopped and the ADP generated in the kinase reaction converted to ATP, which subsequently generates in a luciferase-based reaction a glow-luminescence signal (“Kinase Detection Reagent”). C-terminally FLAG-tagged, recombinant full-length human DGKα (expressed in baculovirus infected insect cells, purified using anti-Flag pulldown and size exclusion chromatography as described below, DGKα_hu_1) was used as enzyme. As substrate for the kinase 1,2-dioleoyl-sn-glycerol, reconstituted in octyl-β-D-glucopyranoside micelles, was used. For the preparation of the micelles, 1 volume of a 16.1 mM solution of 1,2-dioleoyl-sn-glycerol (Avanti, Cat. #O8001-25G) in chloroform was slowly evaporated using a nitrogen stream. Subsequently, 22.55 volumes of a 510 mM solution of octyl-β-D-glucopyranoside (Sigma-Aldrich, Cat. #O8001-10G) in 50 mM MOPS buffer (pH 7.4) were added, and the mixture was sonicated in an ultrasonic bath for 20 s. Then 35 volumes of 50 mM MOPS buffer (pH 7.4) were added to yield a solution of 0.28 mM 1,2 dioleoyl-sn-glycerol and 200 mM octyl-β-D-glucopyranoside, which was aliquoted, flash-frozen in liquid nitrogen, and stored at −20° C. until use. For each experiment, a fresh aliquot was quickly thawed and diluted 24-fold with aqueous assay buffer (described below) containing 95.7 μM adenosine triphosphate (Promega) to yield a 1.67-fold concentrated substrate solution. For the assay 50 nl of a 100-fold concentrated solution of the test compound in dimethyl sulfoxide (DMSO, Sigma) was pipetted into either a white 1536-well or a white low-volume 384-well microtiter plate (both Greiner Bio-One, Frickenhausen, Germany). […] The concentration of DGK a was adjusted depending of the activity of the enzyme lot and was chosen appropriate to have the assay in the linear range, a typical concentration is about 0.1 nM. The reaction was stopped by the addition of 2.5 μl of “ADP-Glo-reagent” (1 to 1.5 diluted with water) and the resulting mixture was incubated at 22° C. for 1 h to convert the ATP not consumed in the kinase reaction completely to cAMP. […] The amount of emitted light was taken as a measure for the amount of ADP generated and thereby for the activity of the DGKα.

Chain of DGKα (P23743 with tags, fused parts or gaps): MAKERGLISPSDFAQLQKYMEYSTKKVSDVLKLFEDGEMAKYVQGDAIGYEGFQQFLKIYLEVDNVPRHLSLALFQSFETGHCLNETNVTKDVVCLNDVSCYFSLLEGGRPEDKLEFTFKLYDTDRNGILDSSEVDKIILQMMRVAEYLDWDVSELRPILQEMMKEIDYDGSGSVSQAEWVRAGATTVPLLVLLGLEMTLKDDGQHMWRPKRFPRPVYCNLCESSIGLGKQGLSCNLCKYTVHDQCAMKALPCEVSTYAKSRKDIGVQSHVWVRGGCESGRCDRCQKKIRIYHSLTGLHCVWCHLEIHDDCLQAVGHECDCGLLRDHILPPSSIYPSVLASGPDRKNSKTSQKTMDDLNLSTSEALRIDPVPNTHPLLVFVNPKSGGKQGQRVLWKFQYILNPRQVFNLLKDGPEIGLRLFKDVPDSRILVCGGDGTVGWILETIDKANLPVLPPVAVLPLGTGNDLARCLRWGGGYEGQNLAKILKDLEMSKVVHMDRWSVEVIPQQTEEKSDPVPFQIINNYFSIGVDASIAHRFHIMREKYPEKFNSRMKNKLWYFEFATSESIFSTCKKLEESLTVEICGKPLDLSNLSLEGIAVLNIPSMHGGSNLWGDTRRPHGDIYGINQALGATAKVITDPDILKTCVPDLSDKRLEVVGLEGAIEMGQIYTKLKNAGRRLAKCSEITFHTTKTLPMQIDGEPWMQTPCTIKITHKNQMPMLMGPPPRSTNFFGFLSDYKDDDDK

| Structure (SMILES) | IC50 [nM] |
| --- | --- |
| Cn1c(=O)c(C#N)c(N2CCC(Oc3ccc(N4CCCCC4=O)cc3)CC2)c2ccccc21 [Example 23, 1-methyl-2-oxo-4-{4-[4-(2-oxopiperidin-1-yl)phenoxy]piperidin-1-yl}-1,2-dihydroquinoline-3-carbonitrile] | 181 |
| Cn1c(=O)c(C#N)c(N2CCC(Oc3ccc(F)cc3)CC2)c2cc(C3CC3)ccc21 [Example 148, 6-cyclopropyl-4-[4-(4-fluorophenoxy)piperidin-1-yl]-1-methyl-2-oxo-1,2-dihydroquinoline-3-carbonitrile] | 73 |
| Cn1c(=O)c(C(N)=O)c(N2CCC(OCc3cccc(F)c3)CC2)c2ccccc21 [Example 128, 4-{4-[(3-fluorophenyl)methoxy]piperidin-1-yl}-1-methyl-2-oxo-1,2-dihydroquinoline-3-carboxamide] | 29 |
| Cn1c(=O)c(C#N)c(N2CCC(Oc3ccccc3Cl)CC2)c2ccccc21 [Example 16, 4-[4-(2-chlorophenoxy)piperidin-1-yl]-1-methyl-2-oxo-1,2-dihydroquinoline-3-carbonitrile] | 33 |
| Cn1c(=O)c(C(N)=O)c(N2CCC(OCc3ccc(F)cc3)CC2)c2ccccc21 [Example 127, 4-{4-[(4-fluorophenyl)methoxy]piperidin-1-yl}-1-methyl-2-oxo-1,2-dihydroquinoline-3-carboxamide] | 14 |
| CN1CCN(c2ccc(OC3CCN(c4c(C#N)c(=O)n(C)c5ccccc45)CC3)cc2)C1=O [Example 22, 1-methyl-4-{4-[4-(3-methyl-2-oxoimidazolidin-1-yl)phenoxy]piperidin-1-yl}-2-oxo-1,2-dihydroquinoline-3-carbonitrile] | 129 |
| Cn1c(=O)c(C#N)c(N2CCC(Oc3cccc4ocnc34)CC2)c2ccccc21 [Example 27, 4-{4-[(1,3-benzoxazol-4-yl)oxy]piperidin-1-yl}-1-methyl-2-oxo-1,2-dihydroquinoline-3-carbonitrile] | 318 |
| Cn1c(=O)c(C#N)c(N2CCC(Oc3ccc(N4CCOCC4)cc3)CC2)c2ccccc21 [Example 20, 1-methyl-4-{4-[4-(morpholin-4-yl)phenoxy]piperidin-1-yl}-2-oxo-1,2-dihydroquinoline-3-carbonitrile] | 81 |
| COc1ccccc1OC1CCN(c2c(C(N)=O)c(=O)n(C)c3ccc(C)cc23)CC1 [Example 162] | 57 |
| Cn1c(=O)c(C#N)c(N2CCC(Oc3ccc(-n4ccnc4)cc3)CC2)c2ccccc21 [Example 19, 4-{4-[4-(1H-imidazol-1-yl)phenoxy]piperidin-1-yl}-1-methyl-2-oxo-1,2-dihydroquinoline-3-carbonitrile] | 64 |
| CN1CCN(c2ccc(OC3CCN(c4c(C#N)c(=O)n(C)c5ccccc45)CC3)cc2)C(=O)C1 [Example 24, 1-methyl-4-{4-[4-(4-methyl-2-oxopiperazin-1-yl)phenoxy]piperidin-1-yl}-2-oxo-1,2-dihydroquinoline-3-carbonitrile] | 266 |
| Cc1cccc(COC2CCN(c3c(C(N)=O)c(=O)n(C)c4ccccc34)CC2)c1 [Example 123, 1-methyl-4-{4-[(3-methylphenyl)methoxy]piperidin-1-yl}-2-oxo-1,2-dihydroquinoline-3-carboxamide] | 14 |

Next, values leading:

| IC50 [nM] | Structure (SMILES) |
| --- | --- |
| 6.8 | COCCc1ccc2c(N3CCC(Oc4cccc(OC(F)(F)F)c4)CC3)c(C#N)c(=O)n(C)c2c1 [Example 76, 7-(2-methoxyethyl)-1-methyl-2-oxo-4-{4-[3-(trifluoromethoxy)phenoxy]piperidin-1-yl}-1,2-dihydroquinoline-3-carbonitrile] |
| 4 | Cn1c(=O)c(C#N)c(N2CCC(Oc3ccc(OC(F)F)cc3)CC2)c2ccccc21 [Example 39, 4-{4-[4-(difluoromethoxy)phenoxy]piperidin-1-yl}-1-methyl-2-oxo-1,2-dihydroquinoline-3-carbonitrile] |
| 55 | Cn1c(=O)c(C#N)c(N2CCC(Oc3ccc(OC(F)(F)F)cc3)CC2)c2cccc(N3CCCC3=O)c21 [Example 133, 1-methyl-2-oxo-8-(2-oxopyrrolidin-1-yl)-4-{4-[4-(trifluoromethoxy)phenoxy]piperidin-1-yl}-1,2-dihydroquinoline-3-carbonitrile] |
| 32 | COc1ccc(OC2CCN(c3c(C#N)c(=O)n(C)c4ccccc34)CC2)cc1 [Example 46, 4-[4-(4-methoxyphenoxy)piperidin-1-yl]-1-methyl-2-oxo-1,2-dihydroquinoline-3-carbonitrile] |
| 17 | Cn1c(=O)c(C#N)c(N2CCC(Oc3ccc(Cl)cc3)CC2)c2ccc(Br)cc21 [Example 57, 7-bromo-4-[4-(4-chlorophenoxy)piperidin-1-yl]-1-methyl-2-oxo-1,2-dihydroquinoline-3-carbonitrile] |
| 2530 | Cc1cc(Br)c2c(c1)c(N1CCC(Oc3cccc(Cl)c3)CC1)c(C#N)c(=O)n2C [Example 169, 8-bromo-4-[4-(3-chlorophenoxy)piperidin-1-yl]-1,6-dimethyl-2-oxo-1,2-dihydroquinoline-3-carbonitrile] |
| 1.5 | COc1cccc(OC2CCN(c3c(C#N)c(=O)n(C)c4ccc(Br)cc34)CC2)c1 [Example 138, 6-bromo-4-[4-(3-methoxyphenoxy)piperidin-1-yl]-1-methyl-2-oxo-1,2-dihydroquinoline-3-carbonitrile] |
| 2.3 | Cn1c(=O)c(C#N)c(N2CCC(Oc3ccc(OC(F)(F)F)cc3)CC2)c2ccc(O)cc21 [Example 62, 7-hydroxy-1-methyl-2-oxo-4-{4-[4-(trifluoromethoxy)phenoxy]piperidin-1-yl}-1,2-dihydroquinoline-3-carbonitrile] |
| 50 | Cc1ccc2c(c1)c(N1CCC(Oc3ccccc3C)CC1)c(C#N)c(=O)n2C [Example 150, 1,6-dimethyl-4-[4-(2-methylphenoxy)piperidin-1-yl]-2-oxo-1,2-dihydroquinoline-3-carbonitrile] |
| 556 | Cc1cc(Br)c2c(c1)c(N1CCC(Oc3ccc(OC(F)(F)F)cc3)CC1)c(C#N)c(=O)n2C [Example 168, 8-bromo-1,6-dimethyl-2-oxo-4-{4-[4-(trifluoromethoxy)phenoxy]piperidin-1-yl}-1,2-dihydroquinoline-3-carbonitrile] |
| 1370 | Cn1c(=O)c(C#N)c(N2CCC(Oc3ccc(OC(F)(F)F)cc3)CC2)c2cccc(P(C)(C)=O)c21 [Example 135, 8-(dimethylphosphoryl)-1-methyl-2-oxo-4-{4-[4-(trifluoromethoxy)phenoxy]piperidin-1-yl}-1,2-dihydroquinoline-3-carbonitrile] |
| 18 | Cn1c(=O)c(C#N)c(N2CCC(Oc3ccc(C(F)(F)F)cc3)CC2)c2ccc(Br)cc21 [Example 59, 7-bromo-1-methyl-2-oxo-4-{4-[4-(trifluoromethyl)phenoxy]piperidin-1-yl}-1,2-dihydroquinoline-3-carbonitrile] |
| 12 | Cn1c(=O)c(C#N)c(N2CCC(Oc3ccc(OC(F)(F)F)cc3)CC2)c2ccc(N3CCCC3=O)cc21 [Example 82, 1-methyl-2-oxo-7-(2-oxopyrrolidin-1-yl)-4-{4-[4-(trifluoromethoxy)phenoxy]piperidin-1-yl}-1,2-dihydroquinoline-3-carbonitrile] |
| 0.17 | Cn1c(=O)c(C(N)=O)c(N2CCC(Oc3ccc(OC(F)(F)F)cc3)CC2)c2cc(F)ccc21 [Example 165, 6-fluoro-1-methyl-2-oxo-4-{4-[4-(trifluoromethoxy)phenoxy]piperidin-1-yl}-1,2-dihydroquinoline-3-carboxamide] |
| 654 | Cn1c(=O)c(C#N)c(N2CCC(Oc3ccc4cnoc4c3)CC2)c2ccccc21 [Example 29, 4-{4-[(1,2-benzoxazol-6-yl)oxy]piperidin-1-yl}-1-methyl-2-oxo-1,2-dihydroquinoline-3-carbonitrile] |
| 8.4 | Cn1c(=O)c(C#N)c(N2CCC(Oc3ccc(F)cc3)CC2)c2ccccc21 [Example 6, 4-[4-(4-fluorophenoxy)piperidin-1-yl]-1-methyl-2-oxo-1,2-dihydroquinoline-3-carbonitrile] |
| 5.7 | COc1ccc2c(N3CCC(Oc4ccc(OC(F)(F)F)cc4)CC3)c(C#N)c(=O)n(C)c2c1 [Example 71, 7-methoxy-1-methyl-2-oxo-4-{4-[4-(trifluoromethoxy)phenoxy]piperidin-1-yl}-1,2-dihydroquinoline-3-carbonitrile] |
| 29 | COc1cccc(COC2CCN(c3c(C#N)c(=O)n(C)c4ccccc34)CC2)c1 [Example 115, 4-{4-[(3-methoxyphenyl)methoxy]piperidin-1-yl}-1-methyl-2-oxo-1,2-dihydroquinoline-3-carbonitrile] |
